In the supplement of paper PMC11451515:

Test system: SEM cells
Assay: cell viability relative to DMSO control; higher = less cytotoxic
Conditions: 48 h
Outline: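 NOMO1, SEM and P12-Ichikawa leukemia cells spent at least four passages adapting to each medium before use. They were seeded at 500 cells/well (NOMO1, SEM) or 1000 cells/well (P12-Ichikawa) in 5 μl in 1536-well plates and pin-dosed with library compounds in DMSO at 11 threefold steps from 47 μM down to 0.79 nM. After 48 h at 37°C, CellTiter-Glo One luminescence was read. Viability is reported as a percentage of the DMSO wells on each plate, with cell-free wells as background.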

[1] = HPLM + 10% dialyzed FBS, 0.000781 µM
[2] = HPLM + 10% dialyzed FBS, 0.00234 µM
[3] = HPLM + 10% dialyzed FBS, 0.00702 µM
[4] = HPLM + 10% dialyzed FBS, 0.0211 µM
[5] = HPLM + 10% dialyzed FBS, 0.0632 µM
[6] = HPLM + 10% dialyzed FBS, 0.19 µM
[7] = HPLM + 10% dialyzed FBS, 0.569 µM
[8] = HPLM + 10% dialyzed FBS, 1.71 µM
[9] = HPLM + 10% dialyzed FBS, 5.12 µM
[10] = HPLM + 10% dialyzed FBS, 15.4 µM
[11] = HPLM + 10% dialyzed FBS, 46.1 µM
[12] = RPMI 5 mM glucose + 10% FBS, 0.000781 µM
[13] = RPMI 5 mM glucose + 10% FBS, 0.00234 µM
[14] = RPMI 5 mM glucose + 10% FBS, 0.00702 µM
[15] = RPMI 5 mM glucose + 10% FBS, 0.0211 µM
[16] = RPMI 5 mM glucose + 10% FBS, 0.0632 µM
[17] = RPMI 5 mM glucose + 10% FBS, 0.19 µM
[18] = RPMI 5 mM glucose + 10% FBS, 0.569 µM
[19] = RPMI 5 mM glucose + 10% FBS, 1.71 µM
[20] = RPMI 5 mM glucose + 10% FBS, 5.12 µM
[21] = RPMI 5 mM glucose + 10% FBS, 15.4 µM
[22] = RPMI 5 mM glucose + 10% FBS, 46.1 µM
[23] = RPMI 5 mM glucose + 10% dialyzed FBS, 0.000781 µM
[24] = RPMI 5 mM glucose + 10% dialyzed FBS, 0.00234 µM
[25] = RPMI 5 mM glucose + 10% dialyzed FBS, 0.00702 µM
[26] = RPMI 5 mM glucose + 10% dialyzed FBS, 0.0211 µM
[27] = RPMI 5 mM glucose + 10% dialyzed FBS, 0.0632 µM
[28] = RPMI 5 mM glucose + 10% dialyzed FBS, 0.19 µM
[29] = RPMI 5 mM glucose + 10% dialyzed FBS, 0.569 µM
[30] = RPMI 5 mM glucose + 10% dialyzed FBS, 1.71 µM
[31] = RPMI 5 mM glucose + 10% dialyzed FBS, 5.12 µM
[32] = RPMI 5 mM glucose + 10% dialyzed FBS, 15.4 µM
[33] = RPMI 5 mM glucose + 10% dialyzed FBS, 46.1 µM

| Structure (SMILES) | cell viability [1] | cell viability [2] | cell viability [3] | cell viability [4] | cell viability [5] | cell viability [6] | cell viability [7] | cell viability [8] | cell viability [9] | cell viability [10] | cell viability [11] | cell viability [12] | cell viability [13] | cell viability [14] | cell viability [15] | cell viability [16] | cell viability [17] | cell viability [18] | cell viability [19] | cell viability [20] | cell viability [21] | cell viability [22] | cell viability [23] | cell viability [24] | cell viability [25] | cell viability [26] | cell viability [27] | cell viability [28] | cell viability [29] | cell viability [30] | cell viability [31] | cell viability [32] | cell viability [33] |
| --- | --- | --- | --- | --- | --- | --- | --- | --- | --- | --- | --- | --- | --- | --- | --- | --- | --- | --- | --- | --- | --- | --- | --- | --- | --- | --- | --- | --- | --- | --- | --- | --- | --- |
| COc1cc2c(N3CCN(C(=O)Nc4ccc(OC(C)C)cc4)CC3)ncnc2cc1OCCCN1CCCCC1 | 66.4% | 73.3% | 82.7% | 93.8% | 56.3% | 32.1% | 41.1% | 33.8% | 38% | 13.8% | 15.1% | 89.5% | 104% | 116% | 98.1% | 73% | 66.8% | 51.3% | 39.1% | 46.6% | 16.2% | 22.6% | 82.2% | 85.2% | 83.3% | 77.8% | 65% | 35.5% | 37.3% | 26.1% | 27.6% | 14.1% | 12.8% |
| O=C(NC1CCOCC1)c1ccc(-c2cc(-c3c[nH]nc3-c3ccccn3)ccn2)cc1 | 106% | 108% | 108% | 115% | 117% | 120% | 114% | 112% | 105% | 120% | 114% | 124% | 116% | 124% | 121% | 118% | 132% | 104% | 120% | 118% | 122% | 122% | 98.7% | 108% | 110% | 111% | 104% | 105% | 106% | 104% | 113% | 110% | 123% |
| C[C@H](NC(=O)C(=O)Nc1ccccc1C(C)(C)C)C(=O)N[C@@H](CC(=O)O)C(=O)COc1c(F)c(F)cc(F)c1F | 89.4% | 106% | 103% | 73.1% | 117% | 113% | 123% | 104% | 58.4% | 12.6% | 18.2% | 99.5% | 103% | 117% | 78% | 119% | 112% | 127% | 104% | 64.9% | 9.34% | 5.77% | 90.8% | 109% | 104% | 74.8% | 118% | 114% | 113% | 109% | 56.9% | 10.3% | 6.8% |
| CC/1=C/N([C@@H]2C[C@@H](O)[C@H](CO)O2)C(=O)NC1=O | 78.6% | 82% | 71.8% | 94.7% | 74% | 75.8% | 86.4% | 84.1% | 54.1% | 67.9% | 30.7% | 113% | 97.1% | 100% | 97.4% | 76.5% | 99.3% | 115% | 95.8% | 53.2% | 80.4% | 38% | 81.7% | 74.4% | 76.5% | 79.2% | 45.6% | 64.3% | 73.7% | 62.3% | 44.3% | 56.9% | 29.3% |
| Cc1ccc(-n2nc(C(C)(C)C)cc2NC(=O)Nc2ccc(OCCN3CCOCC3)c3ccccc23)cc1 | 78.7% | 94% | 91.9% | 90.8% | 86.7% | 100% | 84% | 86.2% | 82.2% | 63.7% | 61.8% | 96.6% | 115% | 104% | 103% | 87.1% | 87.1% | 84.1% | 80.8% | 83.6% | 64% | 74.8% | 89.9% | 97.9% | 79.6% | 94.1% | 92% | 90% | 83.7% | 84.7% | 84.1% | 51.7% | 58.8% |
| COc1cc2nccc(Oc3ccc(NC(=O)C4(C(=O)Nc5ccc(F)cc5)CC4)cc3)c2cc1OC | 87.6% | 90.6% | 71.2% | 52.1% | 53.5% | 48.7% | 52.9% | 48.3% | 47.1% | 30.4% | 16.7% | 92.2% | 89.2% | 79.6% | 62.2% | 58.9% | 55.4% | 56% | 51.7% | 46.7% | 31.2% | 5.48% | 71.3% | 71.6% | 57.2% | 42.3% | 47.9% | 43.7% | 41.1% | 46.4% | 40.1% | 26.9% | 12.6% |
| C=C(C)[C@@H]1CC[C@]2(C)CC[C@]3(C)[C@H](CC[C@@H]4[C@@]5(C)CC[C@H](O)C(C)(C)[C@@H]5CC[C@]43C)[C@@H]12 | 86.4% | 103% | 101% | 91.6% | 89% | 100% | 11% | 109% | 111% | 123% | 121% | 97.5% | 107% | 112% | 103% | 104% | 113% | 10% | 110% | 135% | 126% | 124% | 81.3% | 98.5% | 104% | 99.3% | 102% | 108% | 8.47% | 111% | 101% | 90.5% | 104% |
